Holding throughout (test): microbe, parasite or virus in culture
What all share (format): cell-based, HIV-1

Assay [1] relates to NLRepRlucP373S recombinant wild type (WT) virus. The note with it: Human immunodeficiency virus 1, read-out: WT EC50. The gist of the method: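 MT-2 cells infected with NLRepRlucP373S Renilla luciferase reporter virus (NL4-3, Gag P373S), inocula normalized by luciferase signal; compounds 3-fold serially diluted, 1% DMSO final. Virus yield read by Renilla luciferase after 4-5 days at 37 °C. EC50/EC90 from median effect equation; background = signal at NFV 3 μM.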

Assay [2] deals with A364V site directed mutant virus. The note with it: Human immunodeficiency virus 1, read-out: A364V EC90. The gist of the method: (§1)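 Multiple-cycle assay in MT-2 cells infected with Renilla luciferase NL4-3 (Gag P373S background) carrying site-directed Gag A364V or V370A/ΔT371 changes, inocula normalized by luciferase signal. 10,000 cells/well, 3-fold compound dilutions, 1% DMSO, 4–5 days at 37°C; yield read as Renilla luciferase.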

Assay [3] deals with gag V370A/ΔT371 virus. Particulars: Human immunodeficiency virus 1, read-out: V370A/ΔT371 EC90. A digest of the protocol: as §1
The test system of assay [4] is T332S/V362I/Pr R41G virus. The note with it: Human immunodeficiency virus 1, read-out: T332S/V362I/prR41G EC90. A digest of the protocol: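 Renilla luciferase NL4-3 reporter virus (Gag P373S background) carrying Gag T332S/V362I plus protease R41G, inoculum normalized by luciferase signal, infected MT-2 cells (10,000/well). Compounds 3-fold diluted, 1% DMSO final. After 4–5 days at 37 °C, virus yield measured as Renilla luciferase activity in a multiple-cycle assay.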

For orientation: EC50 means the concentration giving half of the maximal effect. Consider `C=C(C)[C@@H]1CC[C@]2(NCCN3CCS(=O)(=O)CC3)CC[C@]3(C)[C@H](CC[C@@H]4[C@@]5(C)CC=C(C6=CCC(COCc7ccccc7C#N)(C(=O)O)CC6)C(C)(C)[C@@H]5CC[C@]43C)[C@@H]12` (some centres unmarked) [reference compound], for which the EC50 in assay [1] turned out to be 3 nM. The EC90 in assay [2] was found to be 228 nM; in assay [3] it was 2420 nM; in assay [4], 2420 nM.

For the molecule `C=C(C)[C@@H]1CC[C@]2(NCCN3CCS(=O)(=O)CC3)CC[C@]3(C)[C@H](CC[C@@H]4[C@@]5(C)CC=C(C6=CCC(COCc7ncccc7C#N)(C(=O)O)CC6)C(C)(C)[C@@H]5CC[C@]43C)[C@@H]12` (some centres unmarked) [reference compound], the EC50 in assay [1] was 2 nM. For the same molecule, the EC90 in assay [2] turned out to be 340 nM; in assay [3], 1460 nM; in assay [4], 1460 nM.

(Values after patent US10421774B2 (priority 2016, dated 2019).)
